Reference: ChEMBL document CHEMBL3132847, “Pseudopeptides with a centrally positioned alkene-based disulphide bridge mimetic stimulate kallikrein-related peptidase 3 activity” (Medchemcomm, 2013)
Active and inactive are the calls of the source. The rule behind the calls is not given here. Bridge positions count the residues as written; N and C are the ends. Square brackets hold non-standard residues; d marks the D form. Peptide text beside a SMILES is read from it. AllylGly = C=CC[C@H](N)C(=O)O; Aoc = NCCCCCCCC(=O)O

Legend:
[1] = target: T1, Prostate-specific antigen (Homo sapiens) (UniProt P07288); assay: Stimulation of KLK3 (unknown origin) proteolytic activity using chromogenic chymotrypsin MeO-Suc-Arg-Pro-Tyr-pNA substrate at 20 ug/ml pre-incubated for 30 mins before addition of substrate by […] relative to untreated control
T1 sequence (whole entry): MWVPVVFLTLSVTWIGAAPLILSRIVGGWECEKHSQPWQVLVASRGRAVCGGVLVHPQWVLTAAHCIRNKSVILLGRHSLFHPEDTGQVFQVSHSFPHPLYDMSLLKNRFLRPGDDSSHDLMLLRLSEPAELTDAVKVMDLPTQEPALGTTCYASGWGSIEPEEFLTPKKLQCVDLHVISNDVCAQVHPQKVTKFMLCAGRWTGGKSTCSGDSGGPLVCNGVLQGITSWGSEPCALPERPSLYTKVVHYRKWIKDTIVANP

[2] = target: T1, Prostate-specific antigen (Homo sapiens); assay: Stimulation of KLK3 (unknown origin) proteolytic activity using chromogenic chymotrypsin MeO-Suc-Arg-Pro-Tyr-pNA substrate at 200 ug/ml pre-incubated for 30 mins before addition of substrate by […] relative to untreated control

CC[C@H](C)[C@@H]1NC(=O)[C@@H]2CSSC[C@H](NC(=O)[C@H](Cc3cnc[nH]3)NC(=O)[C@H](C)NC(=O)[C@H](C)NC1=O)C(=O)N[C@@H](Cc1c[nH]c3ccccc13)C(=O)N[C@@H]([C@@H](C)O)C(=O)N[C@H](C(N)=O)CSSC[C@H](N)C(=O)N[C@@H](C(C)C)C(=O)N[C@@H](C)C(=O)N[C@@H](Cc1ccc(O)cc1)C(=O)N2 (H-CVAYCIAAHCWTC-NH2; disulfide 1-13, 5-10)
Activity [1]: 476%

CC[C@H](C)[C@@H]1NC(=O)[C@@H]2CSSC[C@H](NC(=O)[C@H](Cc3cnc[nH]3)NC(=O)[C@H](Cc3cnc[nH]3)NC(=O)[C@H](CCC(=O)O)NC1=O)C(=O)N[C@@H](Cc1c[nH]c3ccccc13)C(=O)N[C@@H]([C@@H](C)O)C(=O)N[C@H](C(=O)O)CSSC[C@H](N)C(=O)N[C@@H](C(C)C)C(=O)N[C@@H](C)C(=O)N[C@@H](Cc1ccc(O)cc1)C(=O)N2 (H-CVAYCIEHHCWTC-OH; disulfide 1-13, 5-10)
Activity [1]: 625%

CC(C)[C@@H]1NC(=O)[C@@H](N)CSSC[C@@H](C(N)=O)NC(=O)[C@H]([C@@H](C)O)NC(=O)[C@H](Cc2c[nH]c3ccccc23)NC(=O)[C@H](C)NC(=O)[C@@H]2CSSC[C@H](NC(=O)[C@H](C)NC(=O)[C@H](Cc3ccc(O)cc3)NC(=O)[C@H](C)NC1=O)C(=O)N[C@@H](CCC(=O)O)C(=O)N[C@@H](Cc1cnc[nH]1)C(=O)N2 (H-CVAYACEHCAWTC-NH2; disulfide 1-13, 6-9)
Activity [1]: 84%

CC(C)[C@@H]1NC(=O)[C@@H](N)CSSC[C@@H](C(N)=O)NC(=O)[C@H]([C@@H](C)O)NC(=O)[C@H](Cc2c[nH]c3ccccc23)NC(=O)[C@@H]2CSSC[C@H](NC(=O)[C@H](Cc3ccc(O)cc3)NC(=O)[C@H](C)NC1=O)C(=O)N[C@@H](C)C(=O)N[C@@H](CCC(=O)O)C(=O)N[C@@H](Cc1cnc[nH]1)C(=O)N[C@@H](Cc1cnc[nH]1)C(=O)N2 (H-CVAYCAEHHCWTC-NH2; disulfide 1-13, 5-10)
Activity [1]: 299%

CC[C@H](C)[C@@H]1NC(=O)[C@@H]2C/C=C/C[C@H](NC(=O)[C@H](Cc3cnc[nH]3)NC(=O)[C@H](C)NC(=O)[C@H](C)NC1=O)C(=O)N[C@@H](Cc1c[nH]c3ccccc13)C(=O)N[C@@H]([C@@H](C)O)C(=O)N[C@H](C(=O)O)CSSC[C@H](N)C(=O)N[C@@H](C(C)C)C(=O)N[C@@H](C)C(=O)N[C@@H](Cc1ccc(O)cc1)C(=O)N2 (H-CVAY[AllylGly]IAAH[AllylGly]WTC-OH; disulfide 1-13; staple (E) 5-10)
fold change (FC) [2]: 4 | Activity [1]: 225%

CC(C)[C@@H]1NC(=O)[C@@H](N)CSSC[C@@H](C(=O)O)NC(=O)[C@H]([C@@H](C)O)NC(=O)[C@H](Cc2c[nH]c3ccccc23)NC(=O)[C@@H]2C/C=C/C[C@H](NC(=O)[C@H](Cc3ccc(O)cc3)NC(=O)[C@H](C)NC1=O)C(=O)N[C@@H](Cc1ccccc1)C(=O)N[C@@H](CCC(=O)O)C(=O)N[C@@H](Cc1cnc[nH]1)C(=O)N[C@@H](Cc1cnc[nH]1)C(=O)N2 (H-CVAY[AllylGly]FEHH[AllylGly]WTC-OH; disulfide 1-13; staple (E) 5-10)
fold change (FC) [2]: 4 | Activity [1]: 223%

CC[C@H](C)[C@@H]1NC(=O)[C@@H](NC(=O)[C@H](Cc2ccc(O)cc2)NC(C)=O)C/C=C/C[C@@H](C(=O)N[C@@H](Cc2c[nH]c3ccccc23)C(N)=O)NC(=O)[C@H](Cc2cnc[nH]2)NC(=O)[C@H](Cc2cnc[nH]2)NC(=O)[C@H](CCC(=O)O)NC1=O (Ac-Y[AllylGly]IEHH[AllylGly]W-NH2; staple (E) 2-7)
Activity [1]: inactive

CC(C)[C@@H]1NC(=O)[C@@H](N)CSSC[C@@H](C(N)=O)NC(=O)[C@H]([C@@H](C)O)NC(=O)[C@H](Cc2c[nH]c3ccccc23)NC(=O)[C@@H]2CSSC[C@H](NC(=O)[C@H](Cc3ccc(O)cc3)NC(=O)[C@H](C)NC1=O)C(=O)N[C@@H](Cc1ccccc1)C(=O)N[C@@H](CCC(=O)O)C(=O)N[C@@H](Cc1cnc[nH]1)C(=O)N[C@@H](Cc1cnc[nH]1)C(=O)N2 (H-CVAYCFEHHCWTC-NH2; disulfide 1-13, 5-10)
Activity [1]: 583%

CC[C@H](C)[C@@H]1NC(=O)[C@@H]2CSSC[C@H](NC(=O)[C@H](C)NC(=O)[C@H](C)NC(=O)[C@H](C)NC1=O)C(=O)N[C@@H](Cc1c[nH]c3ccccc13)C(=O)N[C@@H]([C@@H](C)O)C(=O)N[C@H](C(N)=O)CSSC[C@H](N)C(=O)N[C@@H](C(C)C)C(=O)N[C@@H](C)C(=O)N[C@@H](Cc1ccc(O)cc1)C(=O)N2 (H-CVAYCIAAACWTC-NH2; disulfide 1-13, 5-10)
Activity [1]: 165%

CC[C@H](C)[C@@H]1NC(=O)[C@@H](NC(=O)[C@H](Cc2ccc(O)cc2)NC(C)=O)C/C=C/C[C@@H](C(=O)N[C@@H](Cc2c[nH]c3ccccc23)C(=O)O)NC(=O)[C@H](Cc2cnc[nH]2)NC(=O)[C@H](Cc2cnc[nH]2)NC(=O)[C@H](CCC(=O)O)NC1=O (Ac-Y[AllylGly]IEHH[AllylGly]W-OH; staple (E) 2-7)
Activity [1]: inactive

CC[C@H](C)[C@@H]1NC(=O)[C@@H]2CSSC[C@H](NC(=O)[C@H](C)NC(=O)[C@H](Cc3cnc[nH]3)NC(=O)[C@H](C)NC1=O)C(=O)N[C@@H](Cc1c[nH]c3ccccc13)C(=O)N[C@@H]([C@@H](C)O)C(=O)N[C@H](C(N)=O)CSSC[C@H](N)C(=O)N[C@@H](C(C)C)C(=O)N[C@@H](C)C(=O)N[C@@H](Cc1ccc(O)cc1)C(=O)N2 (H-CVAYCIAHACWTC-NH2; disulfide 1-13, 5-10)
Activity [1]: 239%

CC(C)[C@@H]1NC(=O)[C@@H](N)CSSC[C@@H](C(=O)O)NC(=O)[C@H]([C@@H](C)O)NC(=O)[C@H](Cc2c[nH]c3ccccc23)NC(=O)CCCCCCCNC(=O)[C@H](Cc2ccc(O)cc2)NC(=O)[C@H](C)NC1=O (H-CVAY[Aoc]WTC-OH; disulfide 1-8)
Activity [1]: inactive

CC[C@H](C)[C@@H]1NC(=O)[C@@H]2C/C=C/C[C@H](NC(=O)[C@H](Cc3cnc[nH]3)NC(=O)[C@H](Cc3cnc[nH]3)NC(=O)[C@H](CCC(=O)O)NC1=O)C(=O)N[C@@H](Cc1c[nH]c3ccccc13)C(=O)N[C@@H]([C@@H](C)O)C(=O)N[C@H](C(=O)O)CSSC[C@H](N)C(=O)N[C@@H](C(C)C)C(=O)N[C@@H](C)C(=O)N[C@@H](Cc1ccc(O)cc1)C(=O)N2 (H-CVAY[AllylGly]IEHH[AllylGly]WTC-OH; disulfide 1-13; staple (E) 5-10)
Activity [1]: 189%

CC[C@H](C)[C@@H]1NC(=O)[C@@H]2CSSC[C@H](NC(=O)[C@H](C)NC(=O)[C@H](C)NC(=O)[C@H](CCC(=O)O)NC1=O)C(=O)N[C@@H](Cc1c[nH]c3ccccc13)C(=O)N[C@@H]([C@@H](C)O)C(=O)N[C@H](C(N)=O)CSSC[C@H](N)C(=O)N[C@@H](C(C)C)C(=O)N[C@@H](C)C(=O)N[C@@H](Cc1ccc(O)cc1)C(=O)N2 (H-CVAYCIEAACWTC-NH2; disulfide 1-13, 5-10)
Activity [1]: 226%

CC(C)[C@@H]1NC(=O)[C@@H](N)CSSC[C@@H](C(N)=O)NC(=O)[C@H]([C@@H](C)O)NC(=O)[C@H](Cc2c[nH]c3ccccc23)NC(=O)[C@@H]2CSSC[C@H](NC(=O)[C@H](Cc3ccc(O)cc3)NC(=O)[C@H](C)NC1=O)C(=O)NCC(=O)N[C@@H](CCC(=O)O)C(=O)N[C@@H](Cc1cnc[nH]1)C(=O)N[C@@H](Cc1cnc[nH]1)C(=O)N2 (H-CVAYCGEHHCWTC-NH2; disulfide 1-13, 5-10)
Activity [1]: 152%

CC[C@H](C)[C@@H]1NC(=O)[C@@H]2CSSC[C@H](NC(=O)[C@H](Cc3cnc[nH]3)NC(=O)[C@H](Cc3cnc[nH]3)NC(=O)[C@H](CCC(=O)O)NC1=O)C(=O)N[C@@H](Cc1c[nH]c3ccccc13)C(=O)N[C@@H](C)C(=O)N[C@H](C(N)=O)CSSC[C@H](N)C(=O)N[C@@H](C)C(=O)N[C@@H](C)C(=O)N[C@@H](Cc1ccc(O)cc1)C(=O)N2 (H-CAAYCIEHHCWAC-NH2; disulfide 1-13, 5-10)
Activity [1]: 127%

CC(C)C[C@@H]1NC(=O)[C@@H]2CSSC[C@H](NC(=O)[C@H](Cc3cnc[nH]3)NC(=O)[C@H](Cc3cnc[nH]3)NC(=O)[C@H](CCC(=O)O)NC1=O)C(=O)N[C@@H](Cc1c[nH]c3ccccc13)C(=O)N[C@@H]([C@@H](C)O)C(=O)N[C@H](C(N)=O)CSSC[C@H](N)C(=O)N[C@@H](C(C)C)C(=O)N[C@@H](C)C(=O)N[C@@H](Cc1ccc(O)cc1)C(=O)N2 (H-CVAYCLEHHCWTC-NH2; disulfide 1-13, 5-10)
Activity [1]: 436%
